Results on eight molecules are retold here after patent US20070129371A1, “Novel ethylenediamine derivatives” (Daiichi Pharmaceutical Co., Ltd., priority 2002, published 2007).

Structures can show the parent of a compound that is named as a salt.

The target of this assay is T1, human FXa (Homo sapiens, UniProt P00742).
T1 construct: purchased Enzyme Research Laboratories, Inc
T1 sequence (P00742 235-488 limits assumed): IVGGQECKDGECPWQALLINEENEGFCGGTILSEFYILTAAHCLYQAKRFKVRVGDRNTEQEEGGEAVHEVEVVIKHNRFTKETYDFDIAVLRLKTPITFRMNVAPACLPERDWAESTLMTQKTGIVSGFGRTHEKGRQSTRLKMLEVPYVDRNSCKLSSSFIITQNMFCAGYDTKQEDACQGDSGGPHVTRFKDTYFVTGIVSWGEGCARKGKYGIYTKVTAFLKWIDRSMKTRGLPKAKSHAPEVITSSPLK
T1 sequence (P00742 41-179 partner limits assumed): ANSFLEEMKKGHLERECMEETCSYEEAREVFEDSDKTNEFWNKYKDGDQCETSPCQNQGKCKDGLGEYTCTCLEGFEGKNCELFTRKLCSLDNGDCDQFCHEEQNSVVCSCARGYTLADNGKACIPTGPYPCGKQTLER
Nature of the assay: Determination of human FXa-inhibiting effect (IC50 value). The assay is classed as biochemical. The settings on record: S-2222 chromogenic substrate, absorbance at 405 nm, Tris buffer pH 7.4, room temperature. As to the method: A 5% DMSO solution (10 μl) of each test compound, the concentrations of which had been suitably set stepwise, and Tris buffer (100 mM Tris, 200 mM potassium chloride, 0.2% BSA, pH 7.4) (40 μl) and 0.0625 U/ml human FXa (Enzyme Research Laboratories, Inc., dissolved in and diluted with Tris buffer) (10 μl) were put in each of the wells of a 96-well microplate. A 750 μM aqueous solution (40 μl) of S-2222 (Chromogenix Co.) was added. Absorbance at 405 nm was measured for 10 minutes at room temperature to determine an increase in absorbance (ΔOD/min). As a control, Tris buffer was used in place of the test compound.
The percent inhibition (%) calculated using the following equation at the final concentration of the test compound and the final concentration of the test compound were plotted on the ordinate and abscissa of logarithmic probability paper, respectively, to determine the 50% inhibition concentration (IC50 value) Percent inhibition (%)=[1−(ΔOD/min of test compound)÷(ΔOD/min of control)]×100
As usually defined, the IC50 is the concentration that inhibits the measured activity by half. A lower IC50 goes with higher potency. `C[C@@H](NC(=O)C(=O)Nc1ccc(Cl)cn1)[C@H](NC(=O)c1nc2c(s1)CN(C)CC2)C(=O)N(C)C` [Example 66, N^1-(5-Chloropyridin-2-yl)-N^2-((1R,2S)-3-(dimethylamino)-1-methyl-2-{[(5-methyl-4,5,6,7-tetrahydrothiazlo [5,4-c]pyridin-2-yl)carbonyl]amino}-3-oxopropyl)ethanediamide hydrochloride] yielded an IC50 of 2 nM. Next, `CN1CCc2nc(C(=O)NC(CNC(=O)C(=O)Nc3ccc(Cl)cn3)C(=O)N3CCS(=O)(=O)CC3)sc2C1` (centres unmarked) [Example 2, N^1-(5-Chloropyridin-2-yl)-N^2-(3-(1,1-dioxothiomorpholin-4-yl)-2-{[(5-methyl-4,5,6,7-tetrahydrothiazolo[5,4-c]pyridin-2-yl)carbonyl]amino}-3-oxopropyl)ethanediamide hydrochloride]: 7.1 nM; `CN1CCc2nc(C(=O)N[C@@H](CNC(=O)C(=O)Nc3ccc(Cl)s3)C(=O)N(C)C)sc2C1` [Example 40, N^1-(5-Chlorothien-2-yl)-N^2-((2S)-3-(dimethylamino)-2-{[(5-methyl-4,5,6,7-tetrahydrothiazolo[5,4-c]pyridin-2-yl)carbonyl]amino}-3-oxopropyl)ethanediamide hydrochloride]: 1.3 nM. Then `CN1CCc2nc(C(=O)N[C@@H](CNC(=O)C(=O)Nc3ccc(Br)cn3)C(=O)N(C)C)sc2C1` [Example 37, N^1-(5-Bromopyridin-2-yl)-N^2-((2S)-3-(dimethylamino)-2-{[(5-methyl-4,5,6,7-tetrahydrothiazolo[5,4-c]pyridine-2-yl)carbonyl]amino}-3-oxopropyl)ethanediamide hydrochloride], with 1.5 nM; and `CN1CCc2nc(C(=O)N[C@@H](CNC(=O)C(=O)Nc3ccc(Cl)cc3)C(=O)N(C)C)sc2C1` [Example 39, N^1-(4-Chlorophenyl)-N^2-((2S)-3-(dimethylamino)-2-{[(5-methyl-4,5,6,7-tetrahydrothiazolo[5,4-c]pyridin-2-yl)carbonyl]amino}-3-oxopropyl)ethanediamide hydrochloride], with 0.86 nM. Next, `CN1CCc2nc(C(=O)N[C@@H](CNC(=O)C(=O)Nc3ccc(Br)cc3)C(=O)N(C)C)sc2C1` [Example 38, N^1-(4-Bromophenyl)-N^2-((2S)-3-(dimethylamino)-2-{[(5-methyl-4,5,6,7-tetrahydrothiazolo[5,4-c]pyridin-2-yl)carbonyl]amino}-3-oxopropyl)ethanediamide hydrochloride]: 0.81 nM.

As for `CN1CCc2nc(C(=O)N[C@@H](CNC(=O)C(=O)Nc3ccc(Cl)cn3)C(=O)N(C)C)sc2C1` [Example 26, N^1-(5-Chloropyridin-2-yl)-N^2-((2S)-3-(dimethylamino)-2-{[(5-methyl-4,5,6,7-tetrahydrothiazolo[5,4-c]pyridin-2-yl)carbonyl]amino}-3-oxopropyl)ethanediamide hydrochloride], the IC50 was determined as 2.4 nM. On to `CN1CCc2nc(C(=O)N[C@@H](CNC(=O)C(=O)Nc3ccc(Cl)cc3)c3cnco3)sc2C1` [Example 62, N^1-(4-Chlorophenyl)-N^2-[(2S)-2-{[(5-methyl-4,5,6,7-tetrahydrothiazolo[5,4-c]pyridin-2-yl)carbonyl]amino}-2-(1,3-oxazol-5-yl)ethyl]ethanediamide hydrochloride], for which the concentration for half-maximal inhibition (IC50) was 1.8 nM.
